Assay results from patent US8871435B2, “Methods and compositions for identifying agents that inhibit an NS4B-mediated neoplastic cellular phenotype of HCV infected cells” (The Board of Trustees of the Leland Stanford Junior …, priority 2007, dated 2014).

Target: NS4B-GFP (Hepatitis C virus genotype 1b, UniProt Q9WMX2)
Assay type: binding, hepatitis C virus (HCV)

Sequence of NS4B-GFP (Q9WMX2 1712-1972): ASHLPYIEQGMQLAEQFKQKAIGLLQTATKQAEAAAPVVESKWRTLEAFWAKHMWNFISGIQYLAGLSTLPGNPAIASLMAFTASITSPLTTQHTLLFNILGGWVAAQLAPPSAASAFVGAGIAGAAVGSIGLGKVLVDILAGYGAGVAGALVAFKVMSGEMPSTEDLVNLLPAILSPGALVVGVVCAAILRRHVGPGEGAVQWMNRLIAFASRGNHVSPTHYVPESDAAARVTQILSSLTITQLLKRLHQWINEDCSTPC

Structure (SMILES)	labeling (binding) of NS4B-GFP by 32P-labeled photoactivatable nucleotide analog	binding of labeled GTP in the presence of cold competitor nucleotide
[N-]=[N+]=Nc1ccc(NP(=O)(O)OP(=O)(O)OP(=O)(O)OC[C@H]2O[C@@H](n3cnc4c(N)ncnc43)[C@H](O)[C@@H]2O)cc1 [ATP, ATP-γ-4-azidoanilide]	significantly less efficient than GTP binding	–
[N-]=[N+]=Nc1ccc(NP(=O)(O)OP(=O)(O)OP(=O)(O)OC[C@H]2O[C@@H](n3cnc4c(=O)[nH]c(N)nc43)[C@H](O)[C@@H]2O)cc1 [GTP, GTP-γ-4-azidoanilide]	specifically labeled	–
Nc1nc2c(ncn2[C@@H]2O[C@H](COP(=O)(O)OP(=O)(O)OP(O)(O)=S)[C@@H](O)[C@H]2O)c(=O)[nH]1 [GTPγS]	–	progressively decreased
